Experimental data: patent publication US20180127681A1, “GLYCOSYLATED AROMA- AND FRAGRANCE PRECURSORS AND FRAGRANCE PRODUCTS THAT CAN BE ACTIVATED” (Technische University Muenchen, priority 2015, published 2018)
Values joined by “and” are separate entries in the source; they are usually repeats but may differ in a detail not shown here. Equal entries are not always repeated.

How the values were obtained:
[1] = Baking test 2, simple yeast dough, release of geraniol by GC-MS; type: physicochemical
Method: (§1) As samples dough blanks of 10 g flour each were used. A negative control (flour, salt, sugar, yeast and water), three samples (additionally geranyl glucoside) and a recovery (addition of geraniol to the bread before freezing according to a postulated conversion of glucoside of 6% in order to determine losses during the analytical procedure) were used. Several process steps were carried out according to standardized specifications, separate for each of the five blanks.
For a blank/blind test (i) 9.98 g well-mixed flour were weighed into a glass vessel. 0.2 g NaCl and 0.1 g sucrose were added and the mixture was put in the kneader. An addition of 0.7 g (cooled) baking yeast directly to the kneader followed. The mixture was at first kneaded in a dry state for 1 min and kneaded for 8 min after pipetting 6.3 ml dist. H2O. All further steps including the work-up and sample taking ware carried out according to the sample with flour dough (1). In the samples (2a-c) 10 μl GG-solution were pipetted directly after the addition of water to the kneader. The preparation of the recovery (3) was carried out analogous to the blind sample. After cooling for one hour 170 μl geraniol solution were injected herein into the breadcrumb directly before freezing with liquid nitrogen.

[2] = Baking test 1, flour dough, release of geraniol by GC-MS; type: physicochemical; conditions: for conversion of GG to geraniol, mean value: triplicate, from 3.2 μmol GG in 17 g bread
Excerpt: Dough blanks of 10 g flour each were used as base. A negative control (flour, salt and water), three samples (added geranyl glucoside), a recovery (addition of geraniol to the bread prior to freezing according to a postulated conversion of glucoside of about 6% in order to determine the losses during the analytical process) and a control for geraniol in the glucoside solution (addition of an aliquot amount of glucoside only after the baking process to determine the content of geraniol). Several process steps are carried out according to standardized instructions, for each of the six blanks separately.
For a blank/blind test (1) 9.98 g well-mixed flour were weighed into a glass vessel and 0.2 g NaCl were added. The mixture was at first mixed in a dry state for 1 min in a farinograph (=kneader) and kneaded for 8 min after pipetting 6.4 ml dist. water. The dough was taken out quickly and weighed for a first time (E1). A first fermenting period of […] at 31° C. took place in a water vapor saturated proofing cabinet. After taking the dough out of the cabinet a second weighing (E2) took place as well as the homogenization. The ball-shaped blank was put into a round molder (“Rundwirker”) and turned for 10 turns with a superimposed pestle. It was drawn through a pasta/noodle roller, folded two times without inclusion of air and again turned in the round molder for 20 turns. Finally a forming by hand was performed. After the homogenization a second fermentation period of 35 min follows.
For samples (2a-c) additionally 10 μl of a geranyl glucoside (GG) solution (c=98 mg/ml) were quickly pipetted after the addition of water into the kneader.
Baking took place on a tray in the oven for 10 min at 230° C. Before and after putting the samples vapor was put into the closed oven, respectively (spraying and evaporating of 25 ml dist. H2O).
The baked bread was left standing for 60 min at room temperature and subsequently frozen in liquid nitrogen. Storage of the breads took place at −18° C. until the conditioning/preparation. […]

[3] = Baking tests, dough of three kinds of bread with 100 ppm geranyl glucoside (summary); type: physicochemical
Method: The proof-of-principle was now shown successfully for the example bread. Dough from three different kinds of bread was treated with the aroma precursor geranyl glucoside. […] This conversion is ascribed to the biggest extent to pyrolytic processes (about 5%) during the ten-minute baking process at 230° C. and partly on the enzyme-catalyzed hydrolytic processes (about […]) during the preparation of yeast-ß-glucosidase.

[4] = Baking test 3, standard yeast dough, release of geraniol by GC-MS; type: physicochemical
Method: as §1, with “fat, yeast, L-ascorbic acid” for “yeast”
For a blank/blind test (i) 9.98 g well-mixed flour were weighed into a glass vessel. 0.2 g NaCl and 0.1 g sucrose and 0.1 g palm fat were added and the mixture was put in the kneader. An addition of 0.7 g (cooled) baking yeast directly to the kneader followed. The mixture was at first kneaded in a dry state for 1 min and kneaded for 8 min after pipetting 6.0 ml dist. H2O and 0.3 ml ascorbic acid solution.
All further steps including the work-up and sample taking ware carried out according to the sample with flour dough (1). In the samples (2a-c) 10 μl GG-solution were pipetted directly after the addition of water and ascorbic acid solution to the kneader. The preparation of the recovery (3) was carried out analogous to the blind sample. After cooling for one hour 170 μl geraniol solution were injected herein into the breadcrumb directly before freezing with liquid nitrogen.

FaGTs1-13 = experiment: In vitro glycosyltransferase assay with 14C UDP-glucose, substrates of FaGTs1-13; type: biochemical, Fragaria x ananassa; conditions: FaGTs1-13, FIG. 11B, 1 h at 30° C.
Excerpt: In the search for efficient biocatalysts which can be particularly used for the production of aroma glycosides the UGT gene family of plant species Vitis vinifera (grape vine) and Fragaria x ananassa (strawberry) was examined. For this at first the gene sequences were searched that are strongly expressed in the fruits of the plant species. These were subsequently isolated, expressed in the host organism Escherichia coli, and the enzymatic activity toward different potential substrates was determined. At least three of the coding nucleic acid sequences (FaGTs1-5, FaGTs1-13 and VvdGT13, see appended sequences) catalyze the formation of aroma glycosides very efficiently.
In FIG. 11 the determination of the enzyme activity of FaGTs1-5 and FaGTs1-13 is shown.
The reaction was started by adding UDP-glucose and stopped after incubation with 1 ml n-butanol. After vortexing for at least 15 s the reaction mixture was centrifuged 2 min at 12 000×g for separation of the phases, and 800 μl of the upper organic phase containing the product were now transferred to 2 ml scintillation cocktail (Ultima-Flo AF, PerkinElmer).

Row | content of geraniol in the bread [1] [mg/kg] | conversion of GG to geraniol, mean value ([1]; samples 2a and 2c only, from 3.2 μmol GG in 17 g bread) [%] | content of geraniol in the baked bread [2] [mg/kg] | conversion of GG to geraniol, mean value [2] [%] | conversion of GG to geraniol, mean value ([2]; listed as GG) | content of geraniol in bread ([3]; 100 ppm added, conversion of 6%) [mg/kg] | conversion of glucoside to geraniol ([3]; addition of 100 ppm geranyl glucoside, ten-minute baking at 230° C.) | conversion ascribed to pyrolytic processes ([3]; ten-minute baking process at 230° C.) | content of geraniol in the bread [4] [mg/kg] | conversion of GG to geraniol, mean value ([4]; triplicate, from 3.2 μmol GG in 17 g bread) [%] | conversion relative to furaneol (FaGTs1-13) [times] | Structure (SMILES)
1 | 1.77 | 6.1 | 1.40 | 4.8 | 4.8% and 4.9% | 1.7 | about 6% | about 5% | 1.67 | 5.7 |  | CC(C)=CCC/C(C)=C/CO[C@@H]1O[C@H](CO)[C@@H](O)[C@H](O)[C@H]1O [geranyl glucoside]
2 |  |  |  |  |  |  |  |  |  |  | 3 | CCC1OC(C)=C(O)C1=O (centres unmarked) [homofuraneol]
